Publication PMC12250302, “Synthesis, Antimicrobial Activities, and Model of Action of Novel Tetralone Derivatives Containing Aminoguanidinium Moiety” (International Journal of Molecular Sciences, 2025)
Converted amounts (≈) assume the structure as drawn.

Experiments:
S. aureus ATCC 29213 = assay: MIC and MBC testing, broth microdilution; assay type: cell-based, Staphylococcus aureus; settings: Staphylococcus aureus, ATCC29213, S. aureus ATCC 29213; for MIC: 18 h, read-out: MIC; for MBC: read-out: MBC
Outline: (§1)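 Two-fold serial dilutions of compounds (DMSO stocks) in MH broth, inoculated with log-phase bacteria at 1 × 10^6 CFU/mL and incubated 18 h at 37 °C. MIC is the lowest concentration with no visible growth; triplicates. Levofloxacin positive, 0.1% DMSO negative control.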

E. coli ATCC 25922 = assay: MIC and MBC testing, broth microdilution; assay type: cell-based, Escherichia coli; settings: Escherichia coli; for MIC: ATCC25922, 18 h, read-out: MIC; for MBC: ATCC25922, read-out: MBC
Outline: as §1

E. faecium ATCC 35667 = assay: MIC and MBC testing, broth microdilution; assay type: cell-based, Enterococcus faecium; settings: Enterococcus faecium, ATCC35667, E. faecium ATCC 35667; for MIC: 18 h, read-out: MIC; for MBC: read-out: MBC
Outline: as §1

MRSA = assay: MIC testing, summary over MRSA strains; assay type: cell-based; settings: Staphylococcus aureus; against MRSA
Method: (§2) The minimum inhibitory concentration (MIC) of all synthesized compounds was tested by the broth microdilution method. In brief, compounds dissolved in DMSO were diluted twice continuously in a 96-well plate with MH broth. The ESKAPE pathogens (E. coli ATCC 25922, S. aureus ATCC 29213, K. pneumoniae ATCC 700603, A. baumannii ATCC 19606, P. aeruginosa ATCC 27853, and E. faecium ATCC 35667), clinical S. aureus isolates (LMY45, LMY46, LMY47, and LMY48) and methicillin-resistant Staphylococcus aureus (MRSA-1 and MRSA-2) were cultured in MH broth to logarithmic growth phase and then diluted to 1 × 10^6 CFU/mL in MH broth. Subsequently, the diluted bacterial solution was mixed with the diluted compound solution in a 96-well plate and incubated at 37 °C for a duration of 18 h. The MIC of the compounds was recorded as the lowest concentration at which no visible growth was observed. […] Each concentration was replicated thrice.

P. aeruginosa ATCC 27853 = assay: MIC and MBC testing, broth microdilution; assay type: cell-based, Pseudomonas aeruginosa; settings: Pseudomonas aeruginosa; for MIC: ATCC27853, 18 h, read-out: MIC; for MBC: ATCC27853, read-out: MBC
Outline: as §1

[1] = test system: clinical S. aureus isolate LMY47; assay: MIC and MBC testing, broth microdilution; assay type: cell-based, Staphylococcus aureus; settings: Staphylococcus aureus, LMY47; for MIC: 18 h, read-out: MIC; for MBC: read-out: MBC
Outline: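 Broth microdilution in MH broth: 2-fold compound dilutions from DMSO stocks, log-phase clinical S. aureus isolates or MRSA-1 at 1 × 10^6 CFU/mL, 18 h at 37 °C, each concentration in triplicate. MIC recorded; MBC also determined.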

[2] = test system: clinical S. aureus isolate LMY48; assay: MIC and MBC testing, broth microdilution; assay type: cell-based, Staphylococcus aureus; settings: Staphylococcus aureus, LMY48; for MIC: 18 h, read-out: MIC; for MBC: read-out: MBC
Outline: (§3)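 Compounds in DMSO were serially two-fold diluted in MH broth and mixed with log-phase bacteria diluted to 1 × 10^6 CFU/mL in MH broth, then incubated 18 h at 37 °C. MBC values were also determined. Each concentration was tested in triplicate.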

MRSA-2 = assay: MIC and MBC testing, broth microdilution; assay type: cell-based, Staphylococcus aureus; settings: Staphylococcus aureus, MRSA-2; for MIC: 18 h, read-out: MIC; for MBC: read-out: MBC
Outline: as §3

[3] = test system: clinical S. aureus isolate LMY46; assay: MIC and MBC testing, broth microdilution; assay type: cell-based, Staphylococcus aureus; settings: Staphylococcus aureus, LMY46; for MIC: 18 h, read-out: MIC; for MBC: read-out: MBC
Outline: as §3

[4] = test system: clinical S. aureus isolate LMY45; assay: MIC and MBC testing, broth microdilution; assay type: cell-based, Staphylococcus aureus; settings: Staphylococcus aureus, LMY45; for MIC: 18 h, read-out: MIC; for MBC: read-out: MBC
Outline: as §3

MRSA-1 = assay: MIC and MBC testing, broth microdilution; assay type: cell-based, Staphylococcus aureus; settings: Staphylococcus aureus, MRSA-1; for MIC: 18 h, read-out: MIC; for MBC: read-out: MBC
Outline: as §3

[5] = test system: S. aureus, including MRSA; assay: MIC testing, summary over S. aureus strains; assay type: cell-based; settings: Staphylococcus aureus
Method: as §2

[6] = test system: K. pneumoniae ATCC 700603; assay: MIC and MBC testing, broth microdilution; assay type: cell-based, Klebsiella pneumoniae; settings: Klebsiella pneumoniae; for MIC: ATCC700603, 18 h, read-out: MIC; for MBC: ATCC700603, read-out: MBC
Outline: as §1

A. baumannii ATCC 19606 = assay: MIC and MBC testing, broth microdilution; assay type: cell-based, Acinetobacter baumannii; settings: Acinetobacter baumannii; for MIC: ATCC19606, 18 h, read-out: MIC; for MBC: ATCC19606, read-out: MBC
Outline: as §1

| Structure (SMILES) | MIC (S. aureus ATCC 29213) | MBC (S. aureus ATCC 29213) | MIC (E. coli ATCC 25922) | MBC (E. coli ATCC 25922) | MIC (E. faecium ATCC 35667) | MBC (E. faecium ATCC 35667) | MIC (P. aeruginosa ATCC 27853) | MIC [1] | MBC [1] | MIC [2] | MBC [2] | MIC (MRSA-2) | MBC (MRSA-2) | MIC [3] | MBC [3] | MIC [4] | MBC [4] | MIC (MRSA-1) | MBC (MRSA-1) | MIC [6] | also measured |
| --- | --- | --- | --- | --- | --- | --- | --- | --- | --- | --- | --- | --- | --- | --- | --- | --- | --- | --- | --- | --- | --- |
| [H]/N=C(\N)NN=C1CCCc2cc(OCCCC)ccc21 [Compound 2A, (E)-2-(6-butoxy-3,4-dihydronaphthalen-1(2H)-ylidene)hydrazine-1-carboximidamide] | 4 µg/mL (≈ 14.6 µM) | > 32 µg/mL | 16 µg/mL (≈ 58.3 µM) | > 32 µg/mL | 8 µg/mL (≈ 29.2 µM) | 32 µg/mL (≈ 117 µM) | 32 µg/mL (≈ 117 µM) | 2 µg/mL (≈ 7.29 µM) | 2 µg/mL (≈ 7.29 µM) | 1 µg/mL (≈ 3.64 µM) | 2 µg/mL (≈ 7.29 µM) | 1 µg/mL (≈ 3.64 µM) | 2 µg/mL (≈ 7.29 µM) | 2 µg/mL (≈ 7.29 µM) | 4 µg/mL (≈ 14.6 µM) | 2 µg/mL (≈ 7.29 µM) | 4 µg/mL (≈ 14.6 µM) | 2 µg/mL (≈ 7.29 µM) | 2 µg/mL (≈ 7.29 µM) | 16 µg/mL (≈ 58.3 µM) | MIC (MRSA): 1 to 2 µg/mL (≈ 3.64 to 7.29 µM); MBC (P. aeruginosa ATCC 27853): 32 µg/mL (≈ 117 µM); MIC [5]: 0.5 to 4 µg/mL (≈ 1.82 to 14.6 µM); MBC [6]: > 32 µg/mL; MIC (A. baumannii ATCC 19606): 8 µg/mL (≈ 29.2 µM); MBC (A. baumannii ATCC 19606): 16 µg/mL (≈ 58.3 µM) |
| [H]/N=C(\N)NN=C1CCCc2cc(OCc3c(F)cccc3F)ccc21 [Compound 1F, (E)-2-(6-((2,6-difluorobenzyl)oxy)-3,4-dihydronaphthalen-1(2H)-ylidene)hydrazine-1-carboximidamide] | 4 µg/mL (≈ 11.6 µM) | 16 µg/mL (≈ 46.5 µM) | 16 µg/mL (≈ 46.5 µM) | 16 µg/mL (≈ 46.5 µM) | 8 µg/mL (≈ 23.2 µM) | 16 µg/mL (≈ 46.5 µM) | > 32 µg/mL | 4 µg/mL (≈ 11.6 µM) | 8 µg/mL (≈ 23.2 µM) | 4 µg/mL (≈ 11.6 µM) | 16 µg/mL (≈ 46.5 µM) | 4 µg/mL (≈ 11.6 µM) | 16 µg/mL (≈ 46.5 µM) | 4 µg/mL (≈ 11.6 µM) | > 32 µg/mL | 4 µg/mL (≈ 11.6 µM) | 8 µg/mL (≈ 23.2 µM) | 4 µg/mL (≈ 11.6 µM) | 32 µg/mL (≈ 92.9 µM) | 32 µg/mL (≈ 92.9 µM) | MBC [6]: 32 µg/mL (≈ 92.9 µM); MIC (A. baumannii ATCC 19606): 16 µg/mL (≈ 46.5 µM); MBC (A. baumannii ATCC 19606): 16 µg/mL (≈ 46.5 µM) |
| [H]/N=C(\N)NN=C1CCCc2cc(OCc3ccccc3F)ccc21 [Compound 1A, (E)-2-(6-((2-fluorobenzyl)oxy)-3,4-dihydronaphthalen-1(2H)-ylidene)hydrazine-1-carboximidamide] | 4 µg/mL (≈ 12.3 µM) | 16 µg/mL (≈ 49 µM) | 8 µg/mL (≈ 24.5 µM) | 8 µg/mL (≈ 24.5 µM) | 4 µg/mL (≈ 12.3 µM) | 16 µg/mL (≈ 49 µM) | 32 µg/mL (≈ 98 µM) | 2 µg/mL (≈ 6.13 µM) | 8 µg/mL (≈ 24.5 µM) | 2 µg/mL (≈ 6.13 µM) | 4 µg/mL (≈ 12.3 µM) | 2 µg/mL (≈ 6.13 µM) | 8 µg/mL (≈ 24.5 µM) | 2 µg/mL (≈ 6.13 µM) | 8 µg/mL (≈ 24.5 µM) | 2 µg/mL (≈ 6.13 µM) | 4 µg/mL (≈ 12.3 µM) | 2 µg/mL (≈ 6.13 µM) | 16 µg/mL (≈ 49 µM) | 16 µg/mL (≈ 49 µM) | MBC (P. aeruginosa ATCC 27853): > 32 µg/mL; MBC [6]: 16 µg/mL (≈ 49 µM); MIC (A. baumannii ATCC 19606): 8 µg/mL (≈ 24.5 µM); MBC (A. baumannii ATCC 19606): 16 µg/mL (≈ 49 µM) |
| [H]/N=C(\N)NN=C1CCCc2cc(OCc3ccc(F)c(Cl)c3)ccc21 [Compound 1U, (E)-2-(6-((3-chloro-4-fluorobenzyl)oxy)-3,4-dihydronaphthalen-1(2H)-ylidene)hydrazine-1-carboximidamide] | 2 µg/mL (≈ 5.54 µM) | 4 µg/mL (≈ 11.1 µM) | 4 µg/mL (≈ 11.1 µM) | 16 µg/mL (≈ 44.3 µM) | 2 µg/mL (≈ 5.54 µM) | 16 µg/mL (≈ 44.3 µM) | 16 µg/mL (≈ 44.3 µM) | 2 µg/mL (≈ 5.54 µM) | 4 µg/mL (≈ 11.1 µM) | 4 µg/mL (≈ 11.1 µM) | 8 µg/mL (≈ 22.2 µM) | 1 µg/mL (≈ 2.77 µM) | 4 µg/mL (≈ 11.1 µM) | 1 µg/mL (≈ 2.77 µM) | 4 µg/mL (≈ 11.1 µM) | 2 µg/mL (≈ 5.54 µM) | 2 µg/mL (≈ 5.54 µM) | 2 µg/mL (≈ 5.54 µM) | 32 µg/mL (≈ 88.7 µM) | 8 µg/mL (≈ 22.2 µM) | MIC (MRSA): 1 to 2 µg/mL (≈ 2.77 to 5.54 µM); MBC (P. aeruginosa ATCC 27853): > 32 µg/mL; MIC [5]: 0.5 to 4 µg/mL (≈ 1.39 to 11.1 µM); MBC [6]: 32 µg/mL (≈ 88.7 µM); MIC (A. baumannii ATCC 19606): 4 µg/mL (≈ 11.1 µM); MBC (A. baumannii ATCC 19606): 16 µg/mL (≈ 44.3 µM) |
